Assay results from patent publication EP4755890A1, “OXO-TRICYCLIC DERIVATIVE AND PHARMACEUTICAL USE THEREOF” (Haisco Pharmaceutical Group Co., Ltd., priority 2023, dated 2025).

Legend:
[1] = test system: HCT-116 cells; assay: HCT-116 cell proliferation inhibition assay (CellTiter-Glo); type: cell-based; conditions: Homo sapiens, 96 h, 4 days, read-out: Inhibitory activity against HCT-116 cell proliferation IC50
Method: The culture conditions for HCT-116 cells were as follows: RPMI-1640 + 10% FBS + 1% penicillin-streptomycin, and the cells were cultured in an incubator with 5% CO2 at 37°C. On the first day, the HCT-116 cells in the exponential growth phase were collected and plated in 96-well cell culture plates at a density of 800 cells/well (180 µL/well). The plates were cultured overnight in an incubator with 5% CO2 at 37°C. T0 wells were plated simultaneously during the plating process. The next day, 20 µL of compounds at different concentrations were added to each well (nine compound concentration gradients, one DMSO well, and one blank well; each compound concentration was plated in triplicate), and the final concentration of DMSO in each well was 0.1%. The plates were cultured in an incubator with 5% CO2 at 37°C for 4 days. On the same day of compound addition, the T0 plate was detected using the CellTiter-Glo Kit, and the detected value was recorded as RLU0. After the culture was completed, 100 µL of detection solution (Cell Viability Assay, Promega) was added to each well. […] The chemiluminescence reading was read using a BMG microplate reader (PHERAstar FSX). […] In the formula, RLUcompound is the readout of the drug-treated group, RLUcontrol is the average value of the compound vehicle control group, and RLUBlank is the average value of the blank control group. […]

[2] = target: T1, WRN protein (AA N517-P1238, ICE) (Homo sapiens, UniProt Q14191); assay: Assay for ATPase activity of WRN helicase (ADP-Glo); type: biochemical; conditions: inhibition of ATPase activity of WRN helicase; 0.3 nM WRN, 0.2 nM DNA substrate, 10 µM ATP
T1 construct: WRN protein (AA N517-P1238, ICE); purchased ICE
T1 sequence (Q14191 517-1238): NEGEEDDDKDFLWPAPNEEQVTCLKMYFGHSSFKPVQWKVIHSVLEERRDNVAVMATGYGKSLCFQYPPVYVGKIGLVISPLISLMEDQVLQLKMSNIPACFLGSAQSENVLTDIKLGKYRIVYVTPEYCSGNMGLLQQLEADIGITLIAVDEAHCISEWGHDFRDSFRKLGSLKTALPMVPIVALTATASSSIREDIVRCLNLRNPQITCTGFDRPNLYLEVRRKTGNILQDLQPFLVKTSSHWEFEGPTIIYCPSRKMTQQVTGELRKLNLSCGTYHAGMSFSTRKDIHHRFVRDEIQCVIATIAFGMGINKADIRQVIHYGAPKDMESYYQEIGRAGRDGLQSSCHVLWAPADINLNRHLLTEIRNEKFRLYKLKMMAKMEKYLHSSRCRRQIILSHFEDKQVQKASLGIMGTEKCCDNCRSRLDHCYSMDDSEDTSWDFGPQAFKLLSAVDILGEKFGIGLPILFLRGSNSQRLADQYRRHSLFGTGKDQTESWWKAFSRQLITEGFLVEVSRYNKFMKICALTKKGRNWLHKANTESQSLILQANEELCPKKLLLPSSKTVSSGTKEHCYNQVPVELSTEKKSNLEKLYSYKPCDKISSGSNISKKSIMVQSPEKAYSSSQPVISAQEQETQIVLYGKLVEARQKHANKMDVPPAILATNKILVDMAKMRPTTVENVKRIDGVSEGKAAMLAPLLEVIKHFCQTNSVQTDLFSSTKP
Method: The assay buffer working solution was as follows: 30 mM Tris pH 7.5 + 0.02% BSA + 2 mM MgCl2 + 50 mM NaCl + 0.1% Pluronic® F127 + 1 mM DTT. WRN protein (AA N517-P1238, ICE) was obtained through protein expression and purification in vitro. A single-stranded DNA substrate ([…]) was synthesized in vitro. 1 µL each of compounds at different concentrations, the WRN protein, and the DNA substrate, together with 2 µL of ATP, were added to a 384-well white plate. The working concentrations of the WRN protein, the DNA substrate, and the ATP were 0.3 nM, 0.2 nM, and 10 µM, respectively. The plate was incubated at room temperature for 20 minutes. After the incubation was completed, the detection was performed in accordance with the instructions of the ADP-Glo Assay Kit (Promega), and the chemiluminescence value was read.
The inhibition rate was calculated according to Formula 1, where RLUsample is the readout of the compound well, RLUmax is the readout of the DMSO control well, and RLUmin is the readout of the control well without the WRN protein. Curve fitting was performed via a four-parameter logistic model (log(inhibitor) vs. response -- Variable slope) using GraphPad Prism software, and the IC50 value was calculated. Inhibition% = (1−(RLUsample−RLUmin)/(RLUmax−RLUmin)) × 100% [formula] Table 1. Results of inhibitory activity of test compounds against ATPase activity of WRN helicase

[3] = test system: SW48 Xenograft Tumor; assay: In vivo efficacy assay of SW48 xenograft tumor; set-up: species or system BALB/c nude mice; conditions: after 14 days of administration
Method: The culture conditions for SW48 cells were as follows: Leibovitz L15 + 10% FBS + 1% penicillin-streptomycin, and the cells were cultured in an incubator without CO2 at 37°C. When the cell confluency reached 80%-90% and the cell number met the requirement, the cells were harvested and counted. 0.1 mL of SW48 cell suspension (5 × 10^6 cells) was subcutaneously inoculated into the right posterior back of female BALB/c nude mice. When the average tumor volume reached 100-150 mm^3, the mice were grouped according to their tumor volumes, with 10 animals per group. The test compounds at different dosages were administered to the animals in each group via intragastric administration once daily. The day of grouping was recorded as D0. During the experiment, the body weights and tumor diameters of the animals were measured three times a week. The tumor volume was calculated according to the formula V = 0.5 × a × b^2, where a and b represent the long diameter and short diameter of the tumor, respectively. The tumor inhibitory efficacy of the test compounds was evaluated by tumor growth inhibition rate (TGI%). [formula]

Cc1ncnc(C(=O)N2CCN(c3c4n(c5nc(C6=CCOCC6)nn5c3=O)[C@@H](C(=O)Nc3ccc(C(F)(F)F)cc3Cl)CCC4)CC2)c1O [Compound 1-B]
IC50 [1]: < 100 nM
IC50 [2]: < 20 nM
growth of SW48 tumors ([3]; intragastric once daily): significantly inhibit
tumor shrinkage ([3]; dosage group of 15 mg/kg): tumor shrinkage can be observed
tumor shrinkage ([3]; dosage group of 50 mg/kg): tumor shrinkage can be observed
